Molecular target: T1, WT human TRPM3 (Homo sapiens, UniProt Q9HCF6)
T1 construct: expressed in transfected cells; host or cells: HEK293T
T1 sequence (Q9HCF6 1-1325 isoform Q9HCF6-10): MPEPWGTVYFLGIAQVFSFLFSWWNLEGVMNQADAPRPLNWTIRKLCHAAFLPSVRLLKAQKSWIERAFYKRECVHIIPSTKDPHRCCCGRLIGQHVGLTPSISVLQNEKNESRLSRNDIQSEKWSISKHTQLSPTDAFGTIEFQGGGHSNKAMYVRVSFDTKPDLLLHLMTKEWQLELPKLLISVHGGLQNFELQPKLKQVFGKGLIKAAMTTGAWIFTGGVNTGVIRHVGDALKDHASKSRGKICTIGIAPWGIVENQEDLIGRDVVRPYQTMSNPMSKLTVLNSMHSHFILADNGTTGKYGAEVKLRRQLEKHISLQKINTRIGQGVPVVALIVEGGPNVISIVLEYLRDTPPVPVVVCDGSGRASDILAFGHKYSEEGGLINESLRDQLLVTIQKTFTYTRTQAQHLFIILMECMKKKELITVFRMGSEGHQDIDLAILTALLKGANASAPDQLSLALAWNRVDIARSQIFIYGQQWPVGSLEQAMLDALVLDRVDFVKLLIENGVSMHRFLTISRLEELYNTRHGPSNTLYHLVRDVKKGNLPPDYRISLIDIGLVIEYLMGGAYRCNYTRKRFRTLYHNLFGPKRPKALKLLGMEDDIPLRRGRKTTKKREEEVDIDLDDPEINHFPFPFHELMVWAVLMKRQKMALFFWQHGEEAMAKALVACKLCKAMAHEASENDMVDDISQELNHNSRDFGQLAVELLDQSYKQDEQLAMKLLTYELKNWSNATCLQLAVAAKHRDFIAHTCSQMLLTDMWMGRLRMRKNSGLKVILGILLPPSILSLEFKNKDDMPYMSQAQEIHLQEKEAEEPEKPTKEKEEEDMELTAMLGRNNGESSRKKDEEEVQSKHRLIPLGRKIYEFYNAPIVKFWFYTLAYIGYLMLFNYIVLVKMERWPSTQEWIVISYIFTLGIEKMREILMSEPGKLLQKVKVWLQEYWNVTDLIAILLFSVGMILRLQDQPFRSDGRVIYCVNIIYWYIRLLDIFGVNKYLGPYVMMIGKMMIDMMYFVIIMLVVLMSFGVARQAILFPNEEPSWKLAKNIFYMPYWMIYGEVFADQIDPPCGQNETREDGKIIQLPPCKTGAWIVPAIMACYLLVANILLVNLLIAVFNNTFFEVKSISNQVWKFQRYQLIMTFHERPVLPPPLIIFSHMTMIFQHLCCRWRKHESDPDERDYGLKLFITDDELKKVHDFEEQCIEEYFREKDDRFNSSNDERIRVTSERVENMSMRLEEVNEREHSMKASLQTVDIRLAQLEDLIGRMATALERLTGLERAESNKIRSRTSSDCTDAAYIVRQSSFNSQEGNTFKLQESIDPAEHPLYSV
Experiment: Whole-cell patch clamp, HEK293T cells expressing WT hTRPM3
Type: cell-based
Conditions: WT
Protocol: HEK293T cells ([Graham et al., 1977]) were cultured as described previously ([Vriens et al., 2007]) and used up in passage number 14. HEK293T cells were tested for the lack of mycoplasma and transiently transfected with 2 µg of DNA using TransIT transfection reagent (Mirus) 36–48 hr before the measurements. In case of co-cultures a ratio of 1:1 between hTRPM3-YFP WT and mutants-YFP DNA was used.
Standard whole-cell patch-clamp recordings were performed with an EPC-10 amplifier and the PatchMasterPro Software (HEKA Elektronik, Lambrecht, Germany). Current measurements were performed at a sampling rate of 20 kHz and currents were digitally filtered at 2.9 kHz. In all measurements, 70% of the series resistance was compensated. The standard internal solution contained (in mM): 100 CsAsp, 45 CsCl, 10 EGTA, 10 HEPES, 1 MgCl2 (pH 7.2 with CsOH) or 140 potassium gluconate, 5 EGTA, 1 MgCl2, 10 HEPES and 2 NaATP (pH 7.3 with CsOH) for the measurements of Gβγ mediated inhibition and the standard extracellular solution contained (in mM): 150 NaCl, 1 MgCl2, 10 HEPES (pH 7.4 with NaOH). The standard patch pipette resistance was between 2 MΩ and 4 MΩ when filled with pipette solution. In experiments allowing Ca^2+-dependent desensitization of TRPM3, Mg^2+ was replaced by Ca^2+ in the extracellular solution, and Cs^+ was replaced by Na^+ in the pipette solution. […] The chemical ligands were dissolved in bath solution from a stock diluted in DMSO.

Clc1ccccc1C(c1ccccc1)(c1ccccc1)n1ccnc1 [Clt, clotrimazole]
Activation of whole-cell currents in the absence of PS (Clt 10 µM): did not activate currents by itself | Effect on the response to PS (whole-cell currents) (Clt 10 µM, PS 40 µM): potentiated responses to PS

CCC1(c2ccccc2)C(=O)NCNC1=O [primidone]
Inhibition of PS-activated inward and outward currents (primidone 25 µM, PS 40 µM, ±80 mV, cells co-expressing µ-opioid receptor): full inhibition

pregnenolone sulfate [PS]
Activation of whole-cell currents (PS 40 µM): reversibly activated outwardly rectifying whole-cell currents

Reference: publication PMC7253177, “Gain of channel function and modified gating properties in TRPM3 mutants causing intellectual disability and epilepsy” (eLife, 2020)
